Experimental data taken from patent publication US8614181B2, “Stabilized pharmaceutical peptide compositions” (Novo Nordisk A/S, priority 2003, dated 2013).

Assay: Thioflavin T-test (ThT) of physical stability (fibril formation) of pharmaceutical formulations after storage at 37° C.
Format: physicochemical
Conditions: for Fluorescence units after storage at 37° C., T = 0 week / Fluorescence units after storage at 37° C., T = 1 month / Fluorescence units after storage at 37° C., T = 1 week: pH of pharmaceutical formulation 7.4
Experimental: Before freeze drying the solution or suspension of the peptide it has been adjusted to the aimed pH. After freeze drying pharmaceutical formulations were prepared according to General procedure 1 and 2.
Preservative, isotonic agent and buffer were dissolved in water and pH adjusted to 7.4. Hereafter the freeze dried peptide was dissolved while stirring slowly. The pH was adjusted to 7.4 using Sodium Hydroxide and/or Hydrochloric Acid. Finally, the formulation was filtered through a 0.22 μm filter.
(§1) Preservative, isotonic agent and buffer were dissolved in water and pH adjusted to 7.4. The peptide was dissolved in water while stirring slowly. The two solutions were mixed and pH adjusted to 7.4 using Sodium Hydroxide and/or Hydrochloric acid. Finally, the formulation was filtered through a 0.22 μm filter.
as §1, with “7.4 or lower. Compound 1” for “7.4. The peptide”, “slowly and pH is adjusted to 11.5 by the addition of Sodium Hydroxide. After approx. 5 min the” for “slowly. The”
Physical stability of the formulations is evaluated by means of the Thioflavin T-test. The physical stability of the different formulations is characterized by their tendency to form fibrils. A method to determine the presence of fibrils is the Thioflavin T-test. The histological thiazole dye Thioflavin T (ThT) is used as an indicator of amyloid fibril formation. The method is based on the fluorescent characteristics of ThT. […] The physical stability of the formulations is evaluated by the ThT-test after storage of the formulation is top filled glass cartridges for various time periods.

[1] = pH of Compound 1 before freeze drying 8.0, 3 mg/ml
[2] = pH of Compound 1 before freeze drying 9.5, 3 mg/ml
[3] = pH of Compound 1 before freeze drying 9.5, 6.25 mg/ml
[4] = pH of Compound 1 before freeze drying 11.5, 3 mg/ml
[5] = pH of Compound 1 before freeze drying 11.5, 6.25 mg/ml
[6] = pH of solution containing the drug substance 8.0, 6.25 mg/ml
[7] = pH of solution containing the drug substance 11.5, 6.25 mg/ml

Physical stability (change in ThT) after 1 week and 1 months storage at 37° C. (Compound 1 adjusted to pH 8.0 before freeze drying): an increase in ThT is seen
Physical stability (change in ThT) after 1 week and 1 months storage at 37° C. (Compound 1 adjusted to pH 9.5 before freeze drying): no increase in ThT is seen
Physical stability (change in ThT) after 1 week and 1 months storage at 37° C. (Compound 1 adjusted to pH 11.5 before freeze drying): no increase in ThT is seen
Fluorescence units after storage at 37° C., T = 0 week [1]: 6 fluorescence units
Fluorescence units after storage at 37° C., T = 1 month [1]: 28 fluorescence units
Fluorescence units after storage at 37° C., T = 1 month (pH of Compound 1 before freeze drying 8.0, 6.25 mg/ml): 37 fluorescence units
Fluorescence units after storage at 37° C., T = 0 week [2]: 6 fluorescence units
Fluorescence units after storage at 37° C., T = 1 month [2]: 7 fluorescence units
Fluorescence units after storage at 37° C., T = 1 month [3]: 13 fluorescence units
Fluorescence units after storage at 37° C., T = 1 week [3]: 13 fluorescence units
Fluorescence units after storage at 37° C., T = 0 week [4]: 6 fluorescence units
Fluorescence units after storage at 37° C., T = 1 month [4]: 7 fluorescence units
Fluorescence units after storage at 37° C., T = 0 week [5]: 14 fluorescence units
Fluorescence units after storage at 37° C., T = 1 month [5]: 14 fluorescence units
Fluorescence units after storage at 37° C., T = 1 week [5]: 13 fluorescence units
Fluorescence units after storage at 37° C., T = 0 week [6]: 14 fluorescence units
Fluorescence units after storage at 37° C., T = 1 month [6]: 41 fluorescence units
Fluorescence units after storage at 37° C., T = 1 week [6]: 20 fluorescence units
Fluorescence units after storage at 37° C., T = 0 week [7]: 13 fluorescence units
Fluorescence units after storage at 37° C., T = 1 month [7]: 13 fluorescence units
Fluorescence units after storage at 37° C., T = 1 week [7]: 12 fluorescence units
Physical stability (change in ThT) after 1 month at 37° C. (pH raised above neutral pH (>8) in the solution containing the drug substance): no increase in ThT is seen
Substance: Arg^34, Lys^26 (N^ε-(γ-Glu(N^α-hexadecanoyl)))GLP-1(7-37) [Compound 1]
